Results: ChEMBL document CHEMBL1158509, “Novel selective thiazoleacetic acids as CRTH2 antagonists developed from in silico derived hits. Part 2” (Bioorg Med Chem Lett, 2010)
In brackets after ≈: the same amount, converted by molar mass.

Assays:
[1] = biological target: T1, Prostaglandin D2 receptor 2 (Homo sapiens, UniProt Q9Y5Y4); test: Displacement of[3H]PGD2 from human CRTH2 receptor expressed in african green monkey COS7 cells; type: cell-based, COS-7
T1 sequence (Q9Y5Y4 whole entry): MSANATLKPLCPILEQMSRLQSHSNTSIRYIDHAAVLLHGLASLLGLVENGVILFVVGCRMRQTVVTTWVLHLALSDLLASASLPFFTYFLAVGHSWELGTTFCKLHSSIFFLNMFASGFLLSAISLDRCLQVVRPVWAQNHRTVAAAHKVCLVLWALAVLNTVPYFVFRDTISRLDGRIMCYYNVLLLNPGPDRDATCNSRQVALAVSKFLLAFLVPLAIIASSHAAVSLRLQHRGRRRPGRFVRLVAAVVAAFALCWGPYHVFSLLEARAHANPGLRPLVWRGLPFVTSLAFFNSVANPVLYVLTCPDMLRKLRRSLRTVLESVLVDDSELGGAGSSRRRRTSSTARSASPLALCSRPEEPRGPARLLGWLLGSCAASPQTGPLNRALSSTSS

[2] = biological target: T1, Prostaglandin D2 receptor 2; test: Antagonist activity at human CRTH2 receptor expressed in […] cells assessed as inhibition of beta arrestin translocation by bioluminescence resonance energy transfer assay; type: functional, cell-based
[3] = biological target: T2, Prostaglandin D2 receptor 2 (Homo sapiens) (UniProt Q9Y5Y4); test: Antagonist activity at human CRTH2 receptor expressed in […] cells assessed as inhibition of beta arrestin translocation by bioluminescence resonance energy transfer assay relative to control; type: functional, cell-based
T2 sequence (whole entry): T1 sequence (Q9Y5Y4 whole entry)

[4] = Octanol-water distribution coefficient, log D at pH 7.4; type: physicochemical
[5] = Metabolic stability in rat liver S9 fraction assessed as compound remaining; type: ADME, subcellular
CYP3A4 = CYP3A4 (Homo sapiens, UniProt P08684); test: Inhibition of CYP3A4 at 1 uM; type: ADME
CYP2D6 = CYP2D6 (Homo sapiens, UniProt P10635); test: Inhibition of CYP2D6 at 1 uM; type: ADME
[6] = Clearance in rat; type: ADME, organism-based; conditions: in vivo
[7] = Half life in rat; type: ADME, organism-based; conditions: in vivo
[8] = Metabolic stability in human liver S9 fraction assessed as compound remaining; type: ADME, subcellular
[9] = Bioavailability in rat; type: ADME, organism-based; conditions: in vivo
[10] = biological target: T1, Prostaglandin D2 receptor 2; test: Displacement of[3H]PGD2 from human CRTH2 receptor expressed in […] cells; type: cell-based
[11] = Aqueous solubility at pH 1; type: physicochemical
[12] = biological target: T3, Polyunsaturated fatty acid lipoxygenase ALOX15 (Homo sapiens) (UniProt P16050); test: Inhibition of 15-lipoxygenase at 10 uM
T3 sequence (whole entry): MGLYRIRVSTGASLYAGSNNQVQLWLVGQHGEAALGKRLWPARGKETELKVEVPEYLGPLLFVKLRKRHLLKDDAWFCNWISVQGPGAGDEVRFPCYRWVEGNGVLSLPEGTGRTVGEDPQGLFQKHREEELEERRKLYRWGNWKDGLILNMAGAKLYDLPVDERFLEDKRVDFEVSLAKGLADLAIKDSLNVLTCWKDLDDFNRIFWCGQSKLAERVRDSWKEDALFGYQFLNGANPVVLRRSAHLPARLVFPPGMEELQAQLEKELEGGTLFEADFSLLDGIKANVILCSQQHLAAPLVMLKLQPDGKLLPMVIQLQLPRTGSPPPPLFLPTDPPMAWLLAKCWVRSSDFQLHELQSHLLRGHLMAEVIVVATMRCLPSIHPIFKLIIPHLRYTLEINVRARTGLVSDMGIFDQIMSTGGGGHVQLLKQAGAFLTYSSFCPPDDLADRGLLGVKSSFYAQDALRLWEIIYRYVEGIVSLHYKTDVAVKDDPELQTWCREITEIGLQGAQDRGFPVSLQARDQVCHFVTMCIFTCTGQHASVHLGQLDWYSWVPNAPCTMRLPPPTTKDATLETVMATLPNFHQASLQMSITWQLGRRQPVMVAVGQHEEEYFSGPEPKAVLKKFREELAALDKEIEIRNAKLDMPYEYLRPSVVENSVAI

[13] = biological target: Phospholipase A2 (Homo sapiens) (UniProt P04054); test: Inhibition of PLA2 at 10 uM
[14] = biological target: T4, Prostaglandin D2 receptor (Homo sapiens, UniProt Q13258); test: Inhibition of DP1 receptor
T4 sequence (Q13258 whole entry): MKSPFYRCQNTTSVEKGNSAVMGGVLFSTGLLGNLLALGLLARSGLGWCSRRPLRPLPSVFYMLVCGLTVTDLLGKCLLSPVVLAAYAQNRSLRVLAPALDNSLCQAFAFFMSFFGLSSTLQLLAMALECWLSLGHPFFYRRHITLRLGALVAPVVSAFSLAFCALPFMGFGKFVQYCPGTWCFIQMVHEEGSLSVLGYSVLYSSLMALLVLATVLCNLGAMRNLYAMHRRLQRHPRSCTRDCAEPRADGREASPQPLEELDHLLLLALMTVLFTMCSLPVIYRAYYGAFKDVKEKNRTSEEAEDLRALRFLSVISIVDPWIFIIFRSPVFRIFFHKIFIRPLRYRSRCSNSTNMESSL

[15] = Permeability apical to basolateral side in human Caco-2 cells; type: ADME, cell-based; conditions: read-out: permeability
[16] = biological target: T5, Prostaglandin G/H synthase 2 (Homo sapiens) (UniProt P35354); test: Inhibition of COX2 at 10 uM
T5 sequence (whole entry): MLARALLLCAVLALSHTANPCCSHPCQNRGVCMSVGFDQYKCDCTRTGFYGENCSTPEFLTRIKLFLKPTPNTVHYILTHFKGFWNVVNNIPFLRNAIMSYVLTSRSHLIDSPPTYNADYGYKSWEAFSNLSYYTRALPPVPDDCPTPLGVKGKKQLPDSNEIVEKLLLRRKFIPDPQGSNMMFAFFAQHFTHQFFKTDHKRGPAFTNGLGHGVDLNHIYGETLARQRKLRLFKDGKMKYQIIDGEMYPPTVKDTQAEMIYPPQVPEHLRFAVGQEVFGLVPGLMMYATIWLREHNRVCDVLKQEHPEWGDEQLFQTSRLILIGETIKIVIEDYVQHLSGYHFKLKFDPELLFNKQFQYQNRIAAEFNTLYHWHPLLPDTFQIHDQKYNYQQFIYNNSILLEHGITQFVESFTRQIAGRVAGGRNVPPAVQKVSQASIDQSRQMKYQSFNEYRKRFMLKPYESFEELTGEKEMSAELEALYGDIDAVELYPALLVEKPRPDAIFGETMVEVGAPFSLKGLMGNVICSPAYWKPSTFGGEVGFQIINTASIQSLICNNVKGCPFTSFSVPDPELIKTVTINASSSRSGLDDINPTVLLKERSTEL

[17] = Aqueous solubility at pH 7.4; type: physicochemical
[18] = biological target: T6, Polyunsaturated fatty acid lipoxygenase ALOX12 (Homo sapiens) (UniProt P18054); test: Inhibition of 12-lipoxygenase at 10 uM
T6 sequence (whole entry): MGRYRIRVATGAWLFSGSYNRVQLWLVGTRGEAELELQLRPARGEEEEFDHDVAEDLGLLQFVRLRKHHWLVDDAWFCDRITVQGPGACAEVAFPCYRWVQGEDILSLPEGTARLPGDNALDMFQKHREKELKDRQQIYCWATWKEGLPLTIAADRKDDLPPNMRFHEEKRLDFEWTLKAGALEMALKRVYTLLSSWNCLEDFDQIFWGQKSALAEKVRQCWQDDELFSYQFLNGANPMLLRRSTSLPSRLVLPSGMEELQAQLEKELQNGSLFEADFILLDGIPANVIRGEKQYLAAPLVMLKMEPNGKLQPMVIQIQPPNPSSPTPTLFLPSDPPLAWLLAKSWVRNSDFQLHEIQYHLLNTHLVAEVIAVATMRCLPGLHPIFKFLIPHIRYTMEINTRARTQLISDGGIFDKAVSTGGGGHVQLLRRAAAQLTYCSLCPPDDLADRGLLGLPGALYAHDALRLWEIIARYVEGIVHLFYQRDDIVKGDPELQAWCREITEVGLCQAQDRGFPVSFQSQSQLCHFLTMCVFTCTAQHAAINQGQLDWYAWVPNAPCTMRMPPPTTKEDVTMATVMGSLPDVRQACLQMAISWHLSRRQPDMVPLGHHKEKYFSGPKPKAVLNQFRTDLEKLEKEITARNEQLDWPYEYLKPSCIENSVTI

[19] = biological target: Prostaglandin G/H synthase 1 (Homo sapiens) (UniProt P23219); test: Inhibition of COX1 at 10 uM
Chain of Prostaglandin G/H synthase 1 (Homo sapiens) (P23219 whole entry): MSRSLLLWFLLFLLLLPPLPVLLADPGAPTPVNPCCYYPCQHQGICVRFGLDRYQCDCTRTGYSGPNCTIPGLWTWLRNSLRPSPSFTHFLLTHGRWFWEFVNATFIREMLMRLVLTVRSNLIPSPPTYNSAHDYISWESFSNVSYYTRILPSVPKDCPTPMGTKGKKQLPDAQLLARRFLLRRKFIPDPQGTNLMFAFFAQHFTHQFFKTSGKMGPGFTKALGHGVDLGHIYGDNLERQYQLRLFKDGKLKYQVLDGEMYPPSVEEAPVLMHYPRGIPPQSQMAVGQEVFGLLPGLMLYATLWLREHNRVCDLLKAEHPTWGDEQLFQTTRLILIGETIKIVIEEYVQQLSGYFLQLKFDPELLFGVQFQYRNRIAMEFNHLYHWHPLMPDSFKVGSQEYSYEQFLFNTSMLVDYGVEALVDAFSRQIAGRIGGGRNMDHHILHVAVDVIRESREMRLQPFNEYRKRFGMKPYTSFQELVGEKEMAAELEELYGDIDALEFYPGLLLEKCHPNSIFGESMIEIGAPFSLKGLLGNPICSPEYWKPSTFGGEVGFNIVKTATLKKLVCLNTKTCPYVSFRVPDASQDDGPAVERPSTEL

Chain of CYP3A4 (P08684 whole entry): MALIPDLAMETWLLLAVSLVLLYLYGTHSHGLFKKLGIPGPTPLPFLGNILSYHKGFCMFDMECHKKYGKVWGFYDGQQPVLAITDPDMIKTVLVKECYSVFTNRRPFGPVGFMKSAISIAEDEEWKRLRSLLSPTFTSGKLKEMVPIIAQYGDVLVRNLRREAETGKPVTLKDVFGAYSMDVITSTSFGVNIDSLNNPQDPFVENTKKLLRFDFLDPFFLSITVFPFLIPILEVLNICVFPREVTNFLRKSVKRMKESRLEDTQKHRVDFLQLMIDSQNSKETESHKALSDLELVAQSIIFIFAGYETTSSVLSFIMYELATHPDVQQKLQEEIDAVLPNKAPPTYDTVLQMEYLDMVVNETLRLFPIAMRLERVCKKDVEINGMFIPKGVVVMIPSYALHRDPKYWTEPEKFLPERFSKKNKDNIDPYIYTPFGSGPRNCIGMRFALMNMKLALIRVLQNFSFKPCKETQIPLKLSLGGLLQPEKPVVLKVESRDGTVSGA
Chain of CYP2D6 (P10635 whole entry): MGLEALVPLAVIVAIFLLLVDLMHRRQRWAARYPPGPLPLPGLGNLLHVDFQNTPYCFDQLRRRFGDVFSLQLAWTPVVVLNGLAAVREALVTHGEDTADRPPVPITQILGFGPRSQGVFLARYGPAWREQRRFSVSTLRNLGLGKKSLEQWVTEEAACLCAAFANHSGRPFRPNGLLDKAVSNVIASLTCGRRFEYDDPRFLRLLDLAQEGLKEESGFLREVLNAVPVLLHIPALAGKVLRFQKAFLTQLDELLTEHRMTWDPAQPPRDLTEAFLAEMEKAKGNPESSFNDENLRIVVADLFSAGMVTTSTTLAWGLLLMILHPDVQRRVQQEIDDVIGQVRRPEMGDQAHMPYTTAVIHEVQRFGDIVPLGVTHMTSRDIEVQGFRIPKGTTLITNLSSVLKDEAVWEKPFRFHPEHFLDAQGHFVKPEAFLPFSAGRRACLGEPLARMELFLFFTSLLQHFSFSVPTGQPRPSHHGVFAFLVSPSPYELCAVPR
Chain of Phospholipase A2 (Homo sapiens) (P04054 23-148 limits assumed): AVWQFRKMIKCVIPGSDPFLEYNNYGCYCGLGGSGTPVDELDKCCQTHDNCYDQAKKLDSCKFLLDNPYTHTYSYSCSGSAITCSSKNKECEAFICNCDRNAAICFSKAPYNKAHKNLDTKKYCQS

Row | Structure (SMILES) | IC50 [2] [nM] | Efficacy [3] [%] | IC50 [10] [nM] | further results
1 | O=C(O)Cc1sc(-c2ccco2)nc1-c1ccc(Cl)cc1 | 3800 | 50 | – | IC50 [1]: 550 nM
2 | COc1ccc(C(c2ccccc2)c2nc(-c3ccc(F)cc3)c(CC(=O)O)s2)cc1 (stereo unspecified) | 31 | 80 | 3.6 | logD [4]: 3; Stability [5]: 0%; inhibition at 1 µM (CYP3A4): 4.4%; inhibition at 1 µM (CYP2D6): 5.8%; clearance [6]: 70 mL/min/kg; half-life [7]: 8.5 h; Stability [8]: 3.3%; bioavailability [9]: 81%; solubility [11]: 40 µM (≈ 17.3 µg/mL)
3 | Cc1nc(-c2ccc(Cl)cc2)c(CC(=O)O)s1 | 41000 | 50 | – | IC50 [1]: 5500 nM
4 | O=C(O)Cc1sc(C(c2ccccc2)c2ccccc2)nc1-c1ccc(Cl)cc1 | 60 | 50 | 14 | inhibition [12]: 20%; Stability [5]: 2.1%; inhibition [13]: 20%; IC50 [14]: 100000 nM; inhibition at 1 µM (CYP3A4): 69%; inhibition at 1 µM (CYP2D6): 97.8%; Papp A→B [15]: 2.6 ×10⁻⁶ cm/s; inhibition [16]: 20%; solubility [17]: 154 µM (≈ 64.7 µg/mL); inhibition [18]: 20%; clearance [6]: 27 mL/min/kg; half-life [7]: 24 h; Stability [8]: 98.5%; bioavailability [9]: 62%; inhibition [19]: 20%; solubility [11]: 197 µM (≈ 82.7 µg/mL)
5 | CCC(c1ccccc1)c1nc(-c2ccc(Cl)cc2)c(CC(=O)O)s1 (stereo unspecified) | > 100000 | 50 | 190 | –
6 | O=C(O)Cc1sc(C2(c3ccccc3)CCNCC2)nc1-c1ccc(Cl)cc1 | > 100000 | 50 | 2900 | –
7 | O=C(O)Cc1sc(C(c2ccccc2)C2CCCCC2)nc1-c1ccc(Cl)cc1 (stereo unspecified) | > 100000 | 50 | 530 | –
8 | O=C(O)Cc1sc(C2COc3ccccc3O2)nc1-c1ccc(Cl)cc1 (stereo unspecified) | 2000 | 50 | 500 | –
9 | O=C(O)Cc1sc(CS(=O)(=O)c2ccc(Cl)cc2)nc1-c1ccc(Cl)cc1 | 730 | 30 | 1500 | –
10 | O=C(O)Cc1sc(C(c2ccc(F)cc2)c2ccc(F)cc2)nc1-c1ccncc1 | 40 | 80 | 5.3 | –
11 | O=C(O)Cc1sc(C(c2ccc(F)cc2)c2ccc(F)cc2)nc1-c1ccc(F)cc1 | 72 | 80 | 7.5 | –
12 | O=C(O)Cc1sc(C(c2ccccc2)c2ccccc2)nc1-c1ccc(C(F)(F)F)cc1 | > 100000 | 80 | 1100 | –
13 | Nc1cc(-c2nc(C(c3ccc(F)cc3)c3ccc(F)cc3)sc2CC(=O)O)ccn1 | 64 | 80 | 4.8 | –
14 | O=C(O)Cc1sc(C(c2ccc(F)cc2)c2ccc(F)cc2)nc1-c1ccnc(Cl)c1 | 39 | 80 | 3.1 | –
15 | O=C(O)Cc1sc(C(c2ccccc2)c2cccc(Cl)n2)nc1-c1ccc(Cl)cc1 (stereo unspecified) | > 100000 | 80 | 3200 | –
16 | O=C(O)Cc1sc(C(c2ccc(F)cc2)c2ccc(F)cc2)nc1-c1cncc(F)c1 | 300 | 80 | 71 | –
17 | O=C(O)Cc1sc(C(c2ccccc2)c2ccccc2)nc1-c1ccc(F)cc1 | 77 | 80 | 8.7 | –
